Reference: the NIST ThermoML archive (doi:10.1021/je060271a)
Where “and” joins values, the source holds several entries; their conditions need not be identical. Identical values can stand only once.

Details: 283.14 K, Liquid, Vibrating tube method

CCCCCCC(=O)OCC(COC(=O)CCCCCC)(COC(=O)CCCCCC)COC(=O)CCCCCC [pentaerythritol tetraheptanoate]
Details | mass density
2521.6 kPa | 987.2 kg/m3
2536.4 kPa | 987.3 kg/m3
2553.4 kPa | 987.3 kg/m3
2568.1 kPa | 987.2 kg/m3
2582.9 kPa | 987.4 kg/m3
2600 kPa | 987.4 kg/m3
2614.3 kPa | 987.4 kg/m3
2628.5 kPa | 987.3 kg/m3
2642.2 kPa | 987.3 kg/m3
2656.6 kPa | 987.4 kg/m3
2675.1 kPa | 987.4 kg/m3
2688.8 kPa | 987.5 kg/m3
2704.6 kPa | 987.4 kg/m3
2719.9 kPa | 987.5 kg/m3
2736 kPa | 987.6 kg/m3
2751.8 kPa | 987.5 kg/m3
2766.5 kPa | 987.5 kg/m3
2800.3 kPa | 987.5 kg/m3
2816.5 kPa | 987.5 kg/m3
2832.1 kPa | 987.5 kg/m3
2851.8 kPa | 987.5 kg/m3
2867.8 kPa | 987.5 kg/m3
2885.5 kPa | 987.5 kg/m3
2902.1 kPa | 987.6 kg/m3
2918.6 kPa | 987.6 kg/m3
2935.2 kPa | 987.6 kg/m3
2954.3 kPa | 987.6 kg/m3
2972 kPa | 987.8 kg/m3
2987.9 kPa | 987.4 kg/m3
3008.9 kPa | 987.6 kg/m3
3025.6 kPa | 987.6 kg/m3
3043.9 kPa | 987.6 kg/m3
3062.1 kPa | 987.7 kg/m3
3082.8 kPa | 987.8 kg/m3
3101.3 kPa | 987.7 kg/m3
3118.5 kPa | 987.7 kg/m3
3140.8 kPa | 987.7 kg/m3
3158.5 kPa | 987.7 kg/m3
3176.4 kPa | 987.8 kg/m3
3198.6 kPa | 987.7 kg/m3
3218.2 kPa | 987.7 kg/m3
3237.6 kPa | 987.8 kg/m3
3256.6 kPa | 987.8 kg/m3
3279 kPa | 987.8 kg/m3
3300 kPa | 987.8 kg/m3
3320.3 kPa | 987.7 kg/m3
3339.7 kPa | 987.8 kg/m3
3362.4 kPa | 987.8 kg/m3
3382.2 kPa | 987.9 kg/m3
3402.9 kPa | 987.8 kg/m3
3422.4 kPa | 987.9 kg/m3
3448.4 kPa | 987.9 kg/m3
3468.1 kPa | 987.9 kg/m3
3488.6 kPa | 987.9 kg/m3
3515.4 kPa | 987.8 kg/m3
3535.7 kPa | 988 kg/m3
3561.2 kPa | 987.9 kg/m3
3584.9 kPa | 987.9 kg/m3
3606.2 kPa | 987.9 kg/m3
3628.7 kPa | 988 kg/m3
3652.3 kPa | 987.9 kg/m3
3675 kPa | 988 kg/m3
3703.2 kPa | 988 kg/m3
3725.9 kPa | 988 kg/m3
3750.4 kPa | 988.1 kg/m3
3777.7 kPa | 988.1 kg/m3
3800.4 kPa | 988.1 kg/m3
3825.2 kPa | 988 kg/m3
3853.3 kPa | 988 kg/m3
3879.1 kPa | 988 kg/m3
3903.5 kPa | 988 kg/m3
3929.1 kPa | 988.2 kg/m3
3959.3 kPa | 988.2 kg/m3
3983.7 kPa | 988.1 kg/m3
4010 kPa | 988.4 kg/m3
4036.2 kPa | 988.2 kg/m3
4066.7 kPa | 988.2 kg/m3
4093.2 kPa | 988.2 kg/m3
4121.2 kPa | 988.2 kg/m3
4152.6 kPa | 988.3 kg/m3
4181.1 kPa | 988.3 kg/m3
4209.5 kPa | 988.3 kg/m3
4236.7 kPa | 988.3 kg/m3
4257.5 kPa | 988.4 kg/m3
4379.6 kPa | 988.4 kg/m3
4380.1 kPa | 988.4 kg/m3
4380.5 kPa | 988.4 kg/m3
4380.8 kPa | 988.4 kg/m3
4381 kPa | 988.4 kg/m3
4381.5 kPa | 988.3 kg/m3
4381.9 kPa | 988.6 kg/m3
4382.2 kPa | 988.4 kg/m3
4382.4 kPa | 988.4 kg/m3
4382.6 kPa | 988.3 kg/m3 and 988.5 kg/m3
4382.7 kPa | 988.4 kg/m3
4382.9 kPa | 988.4 kg/m3 and 988.5 kg/m3
4383.1 kPa | 988.4 kg/m3
4383.2 kPa | 988.3 kg/m3 and 988.4 kg/m3
4383.4 kPa | 988.5 kg/m3 and 988.4 kg/m3
4383.6 kPa | 988.3 kg/m3 and 988.4 kg/m3 and 988.5 kg/m3
4383.8 kPa | 988.5 kg/m3 and 988.4 kg/m3
4383.9 kPa | 988.4 kg/m3 and 988.5 kg/m3 and 988.3 kg/m3
4384.1 kPa | 988.4 kg/m3 [middle of 5 runs]
4384.3 kPa | 988.4 kg/m3 and 988.5 kg/m3 and 988.3 kg/m3
4384.5 kPa | 988.4 kg/m3 and 988.5 kg/m3 and 988.3 kg/m3
4384.6 kPa | 988.5 kg/m3 and 988.4 kg/m3
4384.8 kPa | 988.4 kg/m3 and 988.3 kg/m3
4385 kPa | 988.4 kg/m3 and 988.3 kg/m3 and 988.5 kg/m3
4385.1 kPa | 988.4 kg/m3 and 988.3 kg/m3 and 988.5 kg/m3
4385.3 kPa | 988.4 kg/m3 and 988.5 kg/m3
4385.4 kPa | 988.4 kg/m3
4385.5 kPa | 988.4 kg/m3 and 988.3 kg/m3
